Laboratory results reported in ChEMBL document CHEMBL1201862, “PubChem BioAssay data set” (2004).
Activity calls are given as the source filed them.

Tests used:
[1] = THP-1 cell cytotoxicity, dose response, cytotoxicity control for non-replicating M. tuberculosis project (AID 489025); assay type: functional
[2] = Luminescence Cell-Based Dose Confirmation HTS to Identify Activators of 5'UTR Stem-Loop Driven Alpha-Synuclein mRNA Translation in H4 Neuroglioblastoma Cells. [Related pubchem assays: 1829 (Project Summary), 1814 (Primary HTS)]; assay type: functional
H4 = experiment: Luminescence Cell-Based Dose Response HTS to Identify Activators of 5'UTR Stem-Loop Driven Prion Protein mRNA Translation in H4 Neuroglioblastoma Cells. [Related pubchem assays: 1829 (Project Summary), 1814 (Primary HTS)]; assay type: functional; conditions: Homo sapiens
[3] = Luminescence Cell-Based Dose Response HTS to Identify Activators of Luciferase Translation or Activity in H4 […] Cells. [Related pubchem assays: 1829 (Project Summary), 1814 (Primary HTS)]; assay type: functional
cells [4] = assay type: functional
[5] = inhibitors of clade B AD8 Env fusion, dose response, cell-based, cherry-pick (AID 652062); assay type: functional;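 also: luciferase signal from cell-cell fusion driven by HIV-1 clade B AD8 Env; potency is for inhibitors of fusion seen as a drop in luminescence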
[6] = ZM109 Env clade C HIV-1 fusion inhibitors, dose response, HeLa effector, CEM target cells, luciferase, cherry-pick (AID 652058); assay type: functional, cell-based
[7] = inhibitors of HIV Env-driven cell fusion, dose response, cherry-pick (AID 652057); assay type: functional, cell-based
[8] = off-target signal loss in HeLa-CEM21 co-culture – HeLa F-luc CTL cells, cherry-picked, counter-screen for HIV-1 Env fusion inhibitor project, dose response (AID 652040); assay type: functional, cell-based;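 also: potency for signal decrease marking cytotoxic or nonspecific inhibition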
[9] = target: Glucose-6-phosphate 1-dehydrogenase (Homo sapiens, UniProt P11413); experiment: human G6PD enzyme inhibitors, dose response, selectivity assay for P. falciparum G6PD inhibitor project, biochemical, fluorescence (AID 504792); assay type: functional
Chain of Glucose-6-phosphate 1-dehydrogenase (P11413 whole entry): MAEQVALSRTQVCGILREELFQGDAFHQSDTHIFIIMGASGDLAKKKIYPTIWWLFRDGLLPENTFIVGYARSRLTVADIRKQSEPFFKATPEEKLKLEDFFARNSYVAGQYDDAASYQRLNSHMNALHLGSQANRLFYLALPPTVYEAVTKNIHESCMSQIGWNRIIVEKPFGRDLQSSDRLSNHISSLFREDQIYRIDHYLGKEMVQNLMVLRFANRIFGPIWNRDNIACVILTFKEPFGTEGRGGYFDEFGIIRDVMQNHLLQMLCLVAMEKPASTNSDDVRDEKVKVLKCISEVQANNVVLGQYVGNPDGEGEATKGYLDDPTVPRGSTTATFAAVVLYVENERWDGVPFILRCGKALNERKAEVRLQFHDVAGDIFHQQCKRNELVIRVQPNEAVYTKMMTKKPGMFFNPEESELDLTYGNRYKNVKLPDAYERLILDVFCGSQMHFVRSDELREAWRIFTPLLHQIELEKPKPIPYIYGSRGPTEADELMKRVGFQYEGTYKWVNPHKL

[10] = target: T1, Nuclear receptor subfamily 0 group B member 1 (Homo sapiens, UniProt P51843); assay type: functional, cell-based;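 also: HEK293T cells transfected with SF-1 and DAX-1 plus StAR promoter luciferase reporter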
T1 sequence (P51843 whole entry): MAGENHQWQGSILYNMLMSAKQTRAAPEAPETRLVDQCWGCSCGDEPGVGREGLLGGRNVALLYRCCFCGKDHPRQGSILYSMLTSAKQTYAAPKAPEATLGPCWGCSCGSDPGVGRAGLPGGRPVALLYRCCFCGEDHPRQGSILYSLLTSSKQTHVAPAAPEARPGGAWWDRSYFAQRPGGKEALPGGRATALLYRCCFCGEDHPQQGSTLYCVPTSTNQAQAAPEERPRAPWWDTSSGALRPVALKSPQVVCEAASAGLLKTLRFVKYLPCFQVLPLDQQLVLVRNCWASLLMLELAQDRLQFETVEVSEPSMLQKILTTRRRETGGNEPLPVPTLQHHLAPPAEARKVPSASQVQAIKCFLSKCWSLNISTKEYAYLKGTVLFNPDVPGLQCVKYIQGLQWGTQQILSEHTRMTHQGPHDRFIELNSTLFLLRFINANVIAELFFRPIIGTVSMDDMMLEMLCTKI

cells [11] = assay type: functional, cell-based
[12] = cytotoxicity toward NIH3T3 fibroblasts, dose response, counter-screen, cell-based, ATP luminescence, mouse fibroblasts (AID 2010); assay type: functional;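 also: cells exposed to compound for about 90 hours before reading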
[13] = inhibitors of intracellular T. cruzi replication, confirmation, NIH3T3 host cells, beta-gal luminescence (AID 2044); assay type: functional, cell-based;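 also: intracellular parasites grown in NIH/3T3 mouse fibroblasts as host cells; luminescent beta-galactosidase reporter signal from transgenic T. cruzi replicating inside host cells; inhibitors lower the luminescence signal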
[14] = target: T2, Replicative DNA helicase DnaB (Mycobacterium tuberculosis, UniProt P9WMR3); experiment: DnaB intein splicing inhibitors, dose response, biochemical, cell-free fluorescence (AID 449749); assay type: functional
T2 sequence (P9WMR3 whole entry): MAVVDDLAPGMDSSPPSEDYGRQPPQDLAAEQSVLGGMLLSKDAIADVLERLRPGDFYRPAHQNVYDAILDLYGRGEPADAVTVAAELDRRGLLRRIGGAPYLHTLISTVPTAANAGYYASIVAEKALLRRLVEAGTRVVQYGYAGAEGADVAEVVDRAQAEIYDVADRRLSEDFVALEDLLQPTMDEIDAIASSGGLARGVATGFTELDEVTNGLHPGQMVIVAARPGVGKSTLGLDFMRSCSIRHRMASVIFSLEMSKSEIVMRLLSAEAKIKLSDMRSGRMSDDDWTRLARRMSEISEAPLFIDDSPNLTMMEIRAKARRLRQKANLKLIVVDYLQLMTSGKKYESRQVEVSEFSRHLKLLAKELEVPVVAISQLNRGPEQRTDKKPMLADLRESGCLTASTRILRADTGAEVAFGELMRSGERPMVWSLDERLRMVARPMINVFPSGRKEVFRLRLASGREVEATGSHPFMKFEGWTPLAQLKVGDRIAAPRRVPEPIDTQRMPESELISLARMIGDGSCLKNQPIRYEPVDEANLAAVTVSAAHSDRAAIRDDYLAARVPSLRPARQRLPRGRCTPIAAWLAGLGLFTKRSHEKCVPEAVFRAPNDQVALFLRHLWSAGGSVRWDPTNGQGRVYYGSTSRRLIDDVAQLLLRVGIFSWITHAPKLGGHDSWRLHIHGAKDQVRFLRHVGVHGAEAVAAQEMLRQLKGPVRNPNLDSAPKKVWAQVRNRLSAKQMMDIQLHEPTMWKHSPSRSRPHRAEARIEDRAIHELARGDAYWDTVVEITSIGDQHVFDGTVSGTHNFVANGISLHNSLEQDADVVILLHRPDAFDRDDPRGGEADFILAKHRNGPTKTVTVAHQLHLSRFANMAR

Protein RecA = target: T3, Protein RecA (Mycobacterium tuberculosis, UniProt P9WHJ3); experiment: Fluorescence Cell-Free Homogeneous Dose Retest to Identify Inhibitors of RecA-Intein Splicing Activity. [Related pubchem assays (depositor defined):AID2097, AID2223, AID489010, AID492950]; assay type: functional
T3 sequence (P9WHJ3 whole entry): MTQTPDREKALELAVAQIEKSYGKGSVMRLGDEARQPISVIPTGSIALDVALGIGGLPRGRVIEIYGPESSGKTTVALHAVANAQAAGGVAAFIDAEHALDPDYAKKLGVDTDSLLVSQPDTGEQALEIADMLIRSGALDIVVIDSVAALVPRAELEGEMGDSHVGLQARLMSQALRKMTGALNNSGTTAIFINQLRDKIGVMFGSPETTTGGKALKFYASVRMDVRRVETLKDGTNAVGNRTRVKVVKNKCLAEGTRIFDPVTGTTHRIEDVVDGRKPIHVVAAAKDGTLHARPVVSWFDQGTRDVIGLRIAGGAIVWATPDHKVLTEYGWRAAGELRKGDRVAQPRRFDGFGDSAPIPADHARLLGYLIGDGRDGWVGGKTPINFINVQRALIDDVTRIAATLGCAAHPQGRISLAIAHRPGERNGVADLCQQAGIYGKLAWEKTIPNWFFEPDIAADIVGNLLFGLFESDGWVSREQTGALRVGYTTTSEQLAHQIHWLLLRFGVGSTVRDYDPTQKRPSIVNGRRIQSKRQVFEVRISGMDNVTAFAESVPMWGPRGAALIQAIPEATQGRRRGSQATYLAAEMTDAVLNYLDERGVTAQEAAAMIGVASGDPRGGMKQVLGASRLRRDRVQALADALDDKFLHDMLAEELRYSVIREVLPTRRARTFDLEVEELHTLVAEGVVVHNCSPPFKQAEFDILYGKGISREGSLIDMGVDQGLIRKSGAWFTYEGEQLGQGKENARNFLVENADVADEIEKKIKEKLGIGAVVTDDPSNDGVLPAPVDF

[15] = microbe, parasite or virus in culture; assay type: functional; conditions: Mycobacterium tuberculosis
[16] = Luminescence Cell-Based Dose Retest to Confirm Inhibitors of Cancer Stem Cells. [Related pubchem assays (depositor defined):AID2717, AID2721]; assay type: functional; conditions: Homo sapiens
[17] = growth suppression of PTEN-null colon cells, dose response, cell-based, HCT116 PTEN knockout (AID 1047); assay type: functional;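 also: HCT116 colon tumor cells with PTEN knocked out; cells exposed to compound for 60 hours before readout; potency for loss of cell viability measured by luminescence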
[18] = growth suppression of beta-catenin-knockout colon cells, dose response, cell-based, HCT116, human colon tumor (AID 1045); assay type: functional;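 also: HCT116 colon tumor cells with beta catenin knocked out; cells exposed to compound for 60 hours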
[19] = THP-1 cell cytotoxicity, dose response, cytotoxicity control for Vif-APOBEC3G degradation inhibitor project, THP-1 cells (AID 1117359); assay type: functional; conditions: Human immunodeficiency virus 1, THP-1

For `COc1ccc(NC(=O)c2cnc(SC)nc2)cc1`, the CC50 [1] was 18.1 µM (active), the EC50 [2] was > 120 µM (not active) and the EC50 (H4) was 16 µM (active). The EC50 [3] was 14.8 µM (active) and the IC50 (cells [4]) was 18.4 µM (active).

In the case of `CC[C@]1(C(=O)OC)[C@H]2C(=O)N(Cc3ccccc3)C(=O)[C@H]2[C@H]2CN=C(SCC3CC3)N21`, the AC50 [5] is reported as 5.46 µM (active), the AC50 [6] is reported as 1.45 µM (active) and the AC50 [7] is reported as 1.12 µM (active). The AC50 [8] was 2.66 µM (active).

In the case of `CCn1c(SCC(=O)Nc2ccccc2OC)nnc1-c1cnccn1`, the IC50 [9] is reported as > 80 µM (inactive).

For `CN1C(=O)CSc2ccc(NC(=O)N3CCc4ccccc43)cc21`, the IC50 [10] was > 67.5 µM (inactive), the IC50 (cells [11]) was > 67.5 µM (inactive) and the IC50 [9] was > 80 µM (inactive).

In the case of `CC[C@@]12C(=O)N(c3ccccc3)C(=O)N1[C@H](c1cccc(C)c1)[C@@H]1C(=O)N(Cc3ccccc3)C(=O)[C@@H]12`, the AC50 [5] is reported as 5.26 µM (active), the AC50 [6] is reported as 3.8 µM (active) and the AC50 [7] is reported as 3.83 µM (active). For the same compound, the AC50 [8] was 4.02 µM (active).

With `CCCCCOc1ccc(CSC2=NCCN2)cc1[N+](=O)[O-]` the EC50 [12] was > 60 µM (not active), the CC50 [1] was > 40 µM (active) and the EC50 [13] was 0.534 µM (active). The EC50 [2] was 14.1 µM (active), the EC50 (H4) was 22.2 µM (active) and the EC50 [3] was > 120 µM (not active).

In the case of `CCOc1ccccc1CNc1ccc(O)cc1`, the AC50 [14] is reported as > 380 µM (inactive), the EC50 (Protein RecA) is reported as 14 µM (active) and the IC50 [9] is reported as > 80 µM (inactive).

In the case of `Cc1ccc(-c2cc(-c3ccccc3C)[nH]n2)c(O)c1`, the CC50 [15] is reported as > 40 µM (active) and the AC50 [16] is reported as 7.98 µM (active).

For `Cc1cc(NC(=O)CCC(=O)N(C2CC2)C2(C(=O)NC3CCCC3)CCC(C)CC2)no1` (stereo not drawn), the AC50 [5] was 13.4 µM (active), the AC50 [6] was 3.3 µM (active) and the AC50 [7] was 5.4 µM (active). The AC50 [8] was 6.16 µM (active).

In the case of `CCOC(=O)N1CCc2c(sc(NC(=O)c3ccc(Cl)s3)c2C(N)=O)C1`, the EC50 [17] is reported as 15.7 µM (active), the CC50 [15] is reported as 17.3 µM (active) and the EC50 [18] is reported as 19.4 µM (active).

With `CC(NC(=O)c1cc2cc(Br)ccc2oc1=N)c1ccccc1` (stereo not drawn) the CC50 [1] was 24.6 µM (active) and the IC50 (cells [4]) was 33.6 µM (active).

In the case of `COc1ccc(NC(=O)/C(C#N)=C\c2ccc(Br)o2)cc1`, the CC50 [19] is reported as 3.4 µM (active).
